Laboratory results published in publication PMC4201456, “Cytoxicity and Apoptotic Mechanism of Ruthenium(II) Amino Acid Complexes in Sarcoma-180 Tumor Cells” (PLoS ONE, 2014).

What was measured:
[1] = system: S180 tumor cells; test: MTT cell viability assay, S180 tumor cells; format: cell-based, murine; settings: S180 tumor cell line, 48 h
Protocol: (§1) The murine sarcoma-180 tumor cells (S180) (ATCC# TIB-66) and normal murine fibroblast cells (L-929) (ATCC# CCL-1) were cultured in suspension in RPMI 1640 and DMEM media (Sigma Chemical Co., MO), respectively, supplemented with 10% fetal calf serum, 100 µg/mL penicillin, and 100 µg/mL streptomycin. The cultures were incubated in a humidified incubator (Thermo Scientific) at 37°C with 5% CO2.
(§2) The cytotoxic effects of the amino acid ruthenium complexes were evaluated using an MTT assay with S180 tumor cells and L929 normal cells as described previously. Briefly, 1.0×10^5 S180 cells and 2.0×10^4 L929 cells were plated in 96-well tissue culture plates and treated with different concentrations of amino acid ruthenium complexes (0.2–200 µM) for 48 h. After treatment, 10 µL of MTT (5 mg mL^−1) was added to each well, and the plates were incubated at 37°C for an additional 3 h. The purple formazan crystals were dissolved in 50 µL of SDS, and the absorbance was determined at 545 nm using a Stat Fax 2100 microplate reader (Awareness Technology, Palm City, FL, USA). The cell viability was calculated as follows: viability (%) = (absorbance of the treated wells)/(absorbance of the control wells) ×100. The IC50 (complex concentration (µM) that results in a 50% reduction in cellular viability) was obtained from dose-response curves using GraphPad Prism 4.02 for Windows (GraphPad Software, San Diego, CA, USA).

[2] = system: L929 normal cells; test: MTT cell viability assay, L929 normal cells; format: cell-based, murine; settings: L929 normal cell line, 48 h
Protocol: as §1, §2

[3] = system: pBR322 plasmid DNA; design: method as in PMID 21875763; settings: previous study; cited from earlier work
[4] = system: S180 cells; design: method as in earlier work; settings: previous studies; cited from earlier work

IC50 [1]	SMILES	IC50 [2]	effect on plasmid DNA (AFM images) [3]	numbers of Annexin V-positive S180 cells [4]
22.5 ± 3.4 µM	CSCC[C@H](N)C(=O)[O-].F[P-](F)(F)(F)(F)F.[Ru+2].c1ccc(-c2ccccn2)nc1.c1ccc(P(CCCCP(c2ccccc2)c2ccccc2)c2ccccc2)cc1 [Complex 1, [Ru(met)(bipy)(dppb)]PF6]	27.4 ± 3.32 µM		
38.2 ± 7 µM	CC(C)C[C@H](N)C(=O)[O-].F[P-](F)(F)(F)(F)F.[Ru+2].c1ccc(-c2ccccn2)nc1.c1ccc(P(CCCCP(c2ccccc2)c2ccccc2)c2ccccc2)cc1 [Complex 3, [Ru(leu)(bipy)(dppb)]PF6]	47.1 ± 5.94 µM		
42.2 ± 3.98 µM	F[P-](F)(F)(F)(F)F.F[P-](F)(F)(F)(F)F.N[C@@H](CC(=O)O)C(=O)O.[Ru+2].c1ccc(-c2ccccn2)nc1.c1ccc(P(CCCCP(c2ccccc2)c2ccccc2)c2ccccc2)cc1 [Complex 4, [Ru(aspac)(bipy)(dppb)](PF6)2]	107 ± 8.98 µM		
50.2 ± 1.03 µM	C[C@H](N)C(=O)[O-].F[P-](F)(F)(F)(F)F.[Ru+2].c1ccc(-c2ccccn2)nc1.c1ccc(P(CCCCP(c2ccccc2)c2ccccc2)c2ccccc2)cc1 [Complex 5, [Ru(ala)(bipy)(dppb)]PF6]	97.8 ± 8.99 µM		
	F[P-](F)(F)(F)(F)F.O=C1[O][Ru-4]23([n+]4ccccc41)([n+]1ccccc1-c1cccc[n+]12)[P+](c1ccccc1)(c1ccccc1)CCCC[P+]3(c1ccccc1)c1ccccc1 [[Ru(pic)(dppb(bipy)]PF6]		strong aggregation of plasmid DNA	
	N.N.N.N.[Cl-].[Cl][Ru+][Cl] [cis-[RuCl2(NH3)4]Cl]			increased the numbers of Annexin V-positive S180 cells

SMILES	IC50 [1]	IC50 [2]	effect on plasmid DNA (AFM images) [3]	numbers of Annexin V-positive S180 cells [4]
N.N.[Cl][Pt][Cl] [Cisplatin, cisplatin, reference compound]	64.83 ± 0.17 µM	29.1 ± 1.88 µM		
